Experimental data taken from patent publication US20230063321A1, “Methods for Treating Inflammatory Bowel Diseases with alpha4beta7 Integrin Antagonists” (Protagonist Therapeutics, Inc., priority 2020, published 2023).
Values joined by “and” are separate entries in the source; they are usually repeats but may differ in a detail not shown here. Equal entries are not always repeated. Numbered stars: 1 amine (or outer) side, 2 acyl side, 3 side chain; on linkers, the order of the positions; unused ones are H or OH. Bridge positions count the residues as written; N and C are the ends. Square brackets hold non-standard residues; d marks the D form. Peptide text beside a SMILES is read from it. I, II: the chains in the order shown. ξ: configuration not given here. Phe(4-tBu) = CC(C)(C)c1ccc(C[C@H](N)C(=O)O)cc1; Diglycolyl = O=C(COCC(=O)[*:2])[*:1]; NMeR = CN[C@@H](CCCNC(=N)N)C(=O)O; β3hE = N[C@@H](CCC(=O)O)CC(=O)O; Thr(3ξ) = CC(O)[C@H](N)C(=O)O; X1 = O=C(c1ccccc1C[*:2])[*:1]; Pen = CC(C)(S)[C@H](N)C(=O)O

Legend:
[1] = Stability of dosing solutions; type: physicochemical; conditions: 50 mM phosphate buffer pH 7.4, stored at 2-8° C.
Protocol: Dose solutions were formulated in 50 mM phosphate buffer pH 7.4 and were prepared weekly by a qualified pharmacist.

[2] = Study 1 pharmacokinetics in healthy male volunteers (liquid solution); conditions: for dose excreted at 24 h: 24-hour fecal recovery, intact
Protocol: Dose escalation proceeded from 100 mg, 300 mg, 1000 mg, 1400 mg. Subjects in the 300 mg dose cohort received treatment in the fasted state on one occasion and following a high fat meal on a second occasion in a crossover fashion. The high fat meal consisted of two eggs fried in butter, two strips of bacon, two slices of toast with butter, four ounces of hash brown potatoes and 240 ml of whole milk. During Part 1, subjects refrained from food and drink except water for 10 hours before and for four hours after dosing with the exception of subjects in the 300 mg dose cohort during the fed treatment.
Part 2 was a randomized, placebo-controlled, double-blind multiple ascending dose study in 50 male subjects divided equally into 5 cohorts. […] Doses evaluated in Part 2 included 100 mg, 300 mg and 1000 mg. During Part 2, two cohorts of subjects (100 mg and 300 mg) received food approximately 30 minutes prior to each dose and another two cohorts of subjects (300 mg and 100 mg) refrained from food for 10 hours before and for 1 hour after dosing.
Study 1: The single and multiple ascending dose phase of the study consisted of sequential dose escalations in 10 subject per dose cohort. […] Dose solutions were formulated in 50 mM phosphate buffer pH 7.4 and were prepared weekly by a qualified pharmacist.
Blood samples for pharmacokinetics were collected predose and for 48 hours postdose following single doses. In the multiple ascending dose phase, blood samples were obtained on Days 1-3 and 14-16; on Days 8 samples were obtained predose, 4, and 12 hours. On Day 10 of the MAD, subjects were required to collect all urine for the 0-6, 6-12, 12-18, and 18-24 hour intervals postdose and on Day 11 subjects were required to collect fecal samples.
The drug and internal standard were extracted from the matrix by a protein precipitation procedure. The limit of quantitation was 0.2 ng/mL, 20 ng/mL, and 100 ng/mL in plasma, urine, and feces, respectively. […] Coefficient of determinations for the calibration curves were at least 0.99 for all matrices. The interassay accuracy (% bias) ranged from −2.2% to 1.0% for plasma, −3.8% to 9.0% for urine and −5.0 to 5.2% for feces. Interassay precision (% CV) ranged from 3.7% to 7.7% for plasma, 2.8% to 7.0% for urine, and 1.2% to 5.2% for feces.
Pharmacokinetic parameters were estimated by noncompartmental methods using Phoenix WinNonlin (Certara, Princeton N.J.). Peak plasma concentration (Cmax) and time to peak plasma concentration (Tmax) were observed values. The elimination rate was estimated from the slope of the least-squares regression on the terminal log-linear phase. Area under the plasma concentration-time curve from time zero to the last quantifiable concentration (AUCt) was estimated by a linear trapezoidal method and was extrapolated to infinity (AUC∞) by dividing the last quantifiable concentration b the elimination rate.

**Q.** Which results are given for `CC(C)C[C@@H]1NC(=O)[C@H](C(C)O)NC(=O)[C@H](CC(=O)O)NC(=O)[C@H](CO)NC(=O)[C@H](CCCNC(=N)N)N(C)C(=O)c2ccccc2CSC(C)(C)[C@@H](C(=O)N[C@@H](Cc2ccc(C(C)(C)C)cc2)C(=O)N[C@@H](CCC(=O)O)CC(=O)N[C@H](CCCCNC(=O)COCC(=O)NCCCC[C@@H](NC(=O)C[C@H](CCC(=O)O)NC(=O)[C@H](Cc2ccc(C(C)(C)C)cc2)NC(=O)[C@H]2NC(=O)[C@H](CC(C)C)NC(=O)[C@H](C(C)O)NC(=O)[C@H](CC(=O)O)NC(=O)[C@H](CO)NC(=O)[C@H](CCCNC(=N)N)N(C)C(=O)c3ccccc3CSC2(C)C)C(=O)O)C(=O)O)NC1=O` (stereo partly drawn) [Compound A, ((2-Benzyl)-(N-Me-R)-Ser-Asp-Thr-Leu-Pen-(Phe(4-tBlu))-(β-homo-Glu)-(D-Lys)-OH)2 (SEQ ID NO: 5) and linker-DIG diglycolic acid] (I: [NMeR]SD[Thr(3ξ)]L[Pen][Phe(4-tBu)][β3hE][dK]-OH / II: [NMeR]SD[Thr(3ξ)]L[Pen][Phe(4-tBu)][β3hE][dK]-OH; linker I:9-II:9 via Diglycolyl; linker I:N-I:6, II:N-II:6 via X1)?
**A.** dosing solutions demonstrated to be stable [1]: 3 months; accumulation with once daily dosing (Cmax and AUCt, Day 14 vs Day 1) ([2]; 300 mg and 1000 mg): ≤ 30%; Fluctuation (%) ([2]; 450 mg Twice Daily, Day 5, Mean ± SD): 143% and 143 ± 42%; Fluctuation (%) ([2]; 450 mg Twice Daily, Day 5, Mean ± SD, listed as COMPOUND A): 143%; Fluctuation (%) ([2]; 900 mg Once Daily, Day 5, Mean ± SD): 245 ± 81%; Fluctuation (%) ([2]; 900 mg Once Daily, Day 5, Mean ± SD, listed as COMPOUND A): 245%; half-life ([2]; human, plasma, oral, 100 mg, t½ (h), 100 mg Fed once daily, Day 1, N = 1): 3.85 h; half-life ([2]; human, plasma, oral, 100 mg, t½ (h), 100 mg Fed once daily, Day 14, N = 1): 7.4 h; half-life ([2]; human, plasma, oral, 300 mg, t½ (h), 300 mg Fed once daily, Day 1, N = 1): 7.96 h; dose excreted at 24 h ([2]; male, human, faeces, oral, 300 mg, 300 mg fasted, multiple dose): 0.73%; dose excreted at 24 h ([2]; male, human, faeces, oral, 300 mg, 300 mg fed, multiple dose): 1.78%; dose excreted ([2]; male, human, faeces, oral, 300 mg, fecal recovery): 1 to 2%; dose excreted at 24 h ([2]; male, human, faeces, oral, 1000 mg, multiple dose): 16.8%; Tmax ([2]; male, human, plasma, oral, 100 mg, Tmax (h), 100 mg Fed once daily, Day 1, Median (Min, Max)): 4 h; Tmax ([2]; male, human, plasma, oral, 100 mg, Tmax (h), 100 mg Fed once daily, Day 14, Median (Min, Max)): 4 h; Tmax ([2]; male, human, plasma, oral, 100 mg, Tmax (h), single dose 100 mg, Median (Min, Max)): 2 h; Cmax ([2]; male, human, plasma, oral, 100 mg, mean peak plasma concentration (Cmax), single dose 100 mg): 2.11 ng/mL; half-life ([2]; male, human, plasma, oral, 100 mg, t½ (h), single dose 100 mg, Mean ± SD, N = 4): 3.05 ± 0.71 h; Tmax ([2]; male, human, plasma, oral, 300 mg, Tmax (h), 300 mg Fasted once daily, Day 1, Median (Min, Max)): 2 h; Tmax ([2]; male, human, plasma, oral, 300 mg, Tmax (h), 300 mg Fasted once daily, Day 14, Median (Min, Max)): 2 h; Tmax ([2]; male, human, plasma, oral, 300 mg, Tmax (h), 300 mg Fed once daily, Day 1, Median (Min, Max)): 4 h; Tmax ([2]; male, human, plasma, oral, 300 mg, Tmax (h), 300 mg Fed once daily, Day 14, Median (Min, Max)): 4 h; Tmax ([2]; male, human, plasma, oral, 300 mg, Tmax (h), single dose 300 mg Fasted, Median (Min, Max)): 3 h; Tmax ([2]; male, human, plasma, oral, 300 mg, Tmax (h), single dose 300 mg High Fat Meal, Median (Min, Max)): 4 h; half-life ([2]; male, human, plasma, oral, 300 mg, mean elimination half-life, single doses 100 and 300 mg): 3.1 to 4 h; half-life ([2]; male, human, plasma, oral, 300 mg, t½ (h), 300 mg Fasted once daily, Day 1, Mean ± SD): 5.16 ± 1.92 h; half-life ([2]; male, human, plasma, oral, 300 mg, t½ (h), 300 mg Fasted once daily, Day 14, Mean ± SD, N = 7): 7.31 ± 3.86 h; half-life ([2]; male, human, plasma, oral, 300 mg, t½ (h), single dose 300 mg Fasted, Mean ± SD, N = 4): 4.02 ± 1.37 h; Tmax ([2]; male, human, plasma, oral, 450 mg, Tmax (h), 450 mg Twice Daily, Day 1, Median (min, max)): 2 h; Tmax ([2]; male, human, plasma, oral, 450 mg, Tmax (h), 450 mg Twice Daily, Day 5, Median (min, max)): 2 h; Tmax ([2]; male, human, plasma, oral, 900 mg, Tmax (h), 900 mg Once Daily, Day 1, Median (min, max)): 2 h; Tmax ([2]; male, human, plasma, oral, 900 mg, Tmax (h), 900 mg Once Daily, Day 5, Median (min, max)): 2 h; half-life ([2]; male, human, plasma, oral, 900 mg, t½ (h), 900 mg Once Daily, Day 1, Mean ± SD): 5.27 ± 2.4 h; half-life ([2]; male, human, plasma, oral, 900 mg, t½ (h), 900 mg Once Daily, Day 5, Mean ± SD): 6.24 ± 2.97 h; Tmax ([2]; male, human, plasma, oral, 1000 mg, Tmax (h), 1000 mg Fasted once daily, Day 1, Median (Min, Max)): 2 h; Tmax ([2]; male, human, plasma, oral, 1000 mg, Tmax (h), 1000 mg Fasted once daily, Day 14, Median (Min, Max)): 2 h; Tmax ([2]; male, human, plasma, oral, 1000 mg, Tmax (h), single dose 1000 mg, Median (Min, Max)): 4 h; half-life ([2]; male, human, plasma, oral, 1000 mg, t½ (h), 1000 mg Fasted once daily, Day 1, Mean ± SD): 6.6 ± 1.99 h; half-life ([2]; male, human, plasma, oral, 1000 mg, t½ (h), 1000 mg Fasted once daily, Day 14, Mean ± SD): 7.7 ± 3.69 h; half-life ([2]; male, human, plasma, oral, 1000 mg, t½ (h), single dose 1000 mg, Mean ± SD, N = 7): 5.26 ± 0.91 h; Tmax ([2]; male, human, plasma, oral, 1400 mg, Tmax (h), single dose 1400 mg, Median (Min, Max)): 4 h; half-life ([2]; male, human, plasma, oral, 1400 mg, mean elimination half-life, single doses 1000 and 1400 mg): 5.3 to 5.7 h; half-life ([2]; male, human, plasma, oral, 1400 mg, t½ (h), single dose 1400 mg, Mean ± SD): 5.74 ± 1.35 h; half-life ([2]; male, human, plasma, oral, mean elimination half-life, multiple doses): 5.2 to 7.7 h; half-life ([2]; male, human, plasma, oral, terminal half-life, fasted state): 3.1 to 5.7 h; half-life ([2]; male, human, plasma, oral, terminal half-life, fed state): 5.2 to 7.7 h; Tmax ([2]; male, human, plasma, po, 300 mg, median time to peak plasma concentration, single dose 300 mg, meal 30 minutes after dosing): 1 h; dose excreted ([2]; male, human, urine, po, 300 mg, recovered intact in urine over 24 hours, 300 mg fasted, multiple dose): 0.028%; dose excreted ([2]; male, human, urine, po, 300 mg, recovered intact in urine over 24 hours, 300 mg fed, multiple dose): 0.056%; dose excreted ([2]; male, human, urine, po, 1000 mg, recovered intact in urine over 24 hours, multiple dose): 0.056%
